Results on 29 molecules are retold here after US11046699B2, “Pyrazolo-pyrimidin-amino-cycloalkyl compounds and their therapeutic uses” (RAPT THERAPEUTICS, INC., priority 2018, dated 2021).

The experiment addresses GCN2 (Homo sapiens, UniProt Q9P2K8). Briefly: GCN2 enzymatic endpoint assay: phosphorylation of GFP-eIF2α measured by TR-FRET (Lanthascreen). Format: biochemical. As to the method:
The Enzymatic assay was run as an endpoint assay to quantify the activity of the serine/threonine GCN2 kinase by way of measuring phosphorylation of its natural substrate, eiF2α.
The enzymatic reaction was initiated by incubating with 2 μM ATP and 80 nM of GFP labeled eiF2a substrate at room temperature and then stopped after 90 minutes with EDTA. The amount of phosphorylated eIF2α is determined by TR-FRET (Lanthascreen). A terbium labeled antibody associates with the phosphorylated substrate resulting in an increased TR-FRET value. Activity was calculated as the ratio of the acceptor (fluorescein) signal at 520 nm wavelength to the donor (terbium) signal 495 nm. The amount of antibody that is bound to the tracer is directly proportional to the amount of phosphorylated substrate present, and in this manner, kinase activity can be detected and measured by an increase in the TR-FRET value.
Compound addition by D300
5 μL enzyme solution in assay buffer
5 μL substrate/ATP mixture in assay buffer
5 μL stop/detection mix in antibody dilution buffer

Setting [1] is: GCN2 biochemical IC50, 4 nM GCN2, 2 μM ATP, 80 nM GFP-eIF2α, 90 min RT, read-out: GCN2 activity.
Setting [2] is: tested as described in Example 77, compound and/or hydrochloride, dihydrochloride or trifluoroacetic acid salt, read-out: IC 50 Activity.

Read-outs that look alike come from different tables or passages of the source.

GCN2, sequence (Q9P2K8 whole entry): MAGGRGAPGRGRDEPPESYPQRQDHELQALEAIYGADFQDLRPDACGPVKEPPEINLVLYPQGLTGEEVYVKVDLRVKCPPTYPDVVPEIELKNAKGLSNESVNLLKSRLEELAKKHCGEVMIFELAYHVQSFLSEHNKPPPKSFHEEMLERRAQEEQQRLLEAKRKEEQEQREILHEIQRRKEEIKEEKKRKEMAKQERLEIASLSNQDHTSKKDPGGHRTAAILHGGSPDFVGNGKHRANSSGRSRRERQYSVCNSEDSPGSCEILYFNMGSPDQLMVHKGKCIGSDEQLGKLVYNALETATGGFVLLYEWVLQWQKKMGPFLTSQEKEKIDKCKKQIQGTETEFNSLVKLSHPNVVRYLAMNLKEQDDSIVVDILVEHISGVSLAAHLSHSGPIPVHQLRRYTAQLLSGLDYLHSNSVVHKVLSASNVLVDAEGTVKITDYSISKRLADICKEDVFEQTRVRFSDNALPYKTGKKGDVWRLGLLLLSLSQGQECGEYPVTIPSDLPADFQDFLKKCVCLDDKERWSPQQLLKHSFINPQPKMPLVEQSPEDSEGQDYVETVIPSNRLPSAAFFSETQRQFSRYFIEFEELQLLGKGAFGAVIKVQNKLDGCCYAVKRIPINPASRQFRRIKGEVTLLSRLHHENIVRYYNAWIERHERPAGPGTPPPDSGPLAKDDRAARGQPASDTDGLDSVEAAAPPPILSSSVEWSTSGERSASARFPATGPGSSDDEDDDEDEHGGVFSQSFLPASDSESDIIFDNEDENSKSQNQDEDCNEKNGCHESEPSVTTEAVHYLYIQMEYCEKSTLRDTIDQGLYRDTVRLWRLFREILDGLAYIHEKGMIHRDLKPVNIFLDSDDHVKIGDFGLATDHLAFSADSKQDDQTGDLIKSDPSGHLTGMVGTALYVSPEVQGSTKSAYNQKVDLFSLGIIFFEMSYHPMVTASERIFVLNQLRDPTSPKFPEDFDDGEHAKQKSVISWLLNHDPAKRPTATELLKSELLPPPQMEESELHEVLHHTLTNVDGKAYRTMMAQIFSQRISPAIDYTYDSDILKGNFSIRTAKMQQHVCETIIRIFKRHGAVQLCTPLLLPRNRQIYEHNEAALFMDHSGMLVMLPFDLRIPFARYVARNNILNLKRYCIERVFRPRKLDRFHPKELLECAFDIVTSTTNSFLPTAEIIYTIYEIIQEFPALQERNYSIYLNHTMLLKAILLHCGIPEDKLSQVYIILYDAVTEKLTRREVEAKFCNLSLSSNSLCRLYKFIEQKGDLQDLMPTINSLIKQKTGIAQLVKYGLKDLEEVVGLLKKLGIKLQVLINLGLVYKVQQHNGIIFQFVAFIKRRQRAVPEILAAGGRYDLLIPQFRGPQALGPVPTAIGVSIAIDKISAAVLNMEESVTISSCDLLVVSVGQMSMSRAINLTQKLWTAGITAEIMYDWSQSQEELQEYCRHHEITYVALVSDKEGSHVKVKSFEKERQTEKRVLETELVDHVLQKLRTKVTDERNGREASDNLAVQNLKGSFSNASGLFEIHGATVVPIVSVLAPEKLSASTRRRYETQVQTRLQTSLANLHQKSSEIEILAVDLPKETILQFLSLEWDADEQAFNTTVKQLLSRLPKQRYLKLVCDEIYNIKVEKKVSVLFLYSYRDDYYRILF

On to `CNC(=O)[C@]1(C)CC[C@@H](Nc2ncc3c(Br)nn(-c4cc(C#N)cc(OCC5(F)CNC5)c4)c3n2)C1` [Example 36, (1R,3R)-3-((3-bromo-1-(3-cyano-5-((3-fluoroazetidin-3-yl)methoxy)phenyl)-1H-pyrazolo[3,4-d]pyrimidin-6-yl)amino)-N,1-dimethylcyclopentane-1-carboxamide; 2,2,2-trifluoroacetic acid], for which the IC50 under setting [1] is less than 0.025 µM.

On to `O=C(Nc1cnn(C2CC2)c1)[C@@H]1CC[C@@H](Nc2ncc3c(Br)nn(-c4cc(F)c5ncccc5c4)c3n2)C1` [(1R,3R)-3-((3-bromo-1-(8-fluoroquinolin-6-yl)-1H-pyrazolo[3,4-d]pyrimidin-6-yl)amino)-N-(1-cyclopropyl-1H-pyrazol-4-yl)cyclopentane-1-carboxamide], for which the IC50 under setting [2] was 0.2 to 0.5 µM.

Take `CNC(=O)[C@]1(C)CC[C@@H](Nc2ncc3c(Br)nn(-c4cc(CNCCC#N)cc(OC(F)(F)F)c4)c3n2)C1` [(1R,3R)-3-[[3-bromo-1-[3-[(2-cyanoethyl-amino)methyl]-5-(trifluoromethoxy)phenyl]pyrazolo[3,4-d]pyrimidin-6-yl]amino]-N,1-dimethyl-cyclopentane-carboxamide]: the IC50 under setting [2] is 0.025 to 0.2 µM.

For `CNC(=O)[C@]1(CC(F)F)CC[C@@H](Nc2ncc3c(Br)nn(-c4cc(CC(C)(C)O)c5ncccc5c4)c3n2)C1` [(1R,3R)-3-[[3-bromo-1-[8-(2-hydroxy-2-methyl-propyl)-6-quinolyl]pyrazolo[3,4-d]pyrimidin-6-yl]amino]-1-(2,2-difluoroethyl)-N-methyl-cyclopentanecarboxamide], the IC50 under setting [2] lay in the range of 0.025 to 0.2 µM.

`CNC(=O)[C@]1(C)CC[C@@H](Nc2ncc3c(Br)nn(-c4cc(Cl)cc([C@H]5COC(=O)N5)c4)c3n2)C1` [(1R,3R)-3-[[3-bromo-1-[3-chloro-5-[(4S)-2-oxooxazolidin-4-yl]phenyl]pyrazolo[3,4-d]pyrimidin-6-yl]amino]-N,1-dimethyl-cyclopentanecarboxamide]: the IC50 under setting [2] was in the range of 0.025 to 0.2 µM.

For the molecule `COCCN1CN(C(=O)C2(C)CC[C@@H](Nc3ncc4c(Br)nn(-c5cc(F)c6ncccc6c5)c4n3)C2)CC1=O` (stereo partly drawn) [1-[(3R)-3-[[3-bromo-1-(8-fluoro-6-quinolyl)pyrazolo[3,4-d]pyrimidin-6-yl]amino]-1-methyl-cyclopentanecarbonyl]-3-(2-methoxyethyl)imidazolidin-4-one], under setting [2], the IC50 was less than 0.025 µM.

Take `CNC(=O)[C@]1(C)CC[C@@H](Nc2ncc3c(Br)nn(-c4cc(Cl)c(F)c(CNS(C)(=O)=O)c4)c3n2)C1`: under setting [2], the IC50 is 0.025 to 0.2 µM.

For `O=C(NC1CCS(=O)(=O)CC1)[C@@H]1CC[C@@H](Nc2ncc3c(Br)nn(-c4ccc(-c5cccnc5)cc4)c3n2)C1`, under setting [2], the IC50 was in the range of 0.2 to 0.5 µM.

As for `CNC(=O)[C@]1(C)CC[C@@H](Nc2ncc3c(Br)nn(-c4ccc(-c5nnc(C)s5)c(F)c4)c3n2)C1`, the IC50 under setting [2] was less than 0.025 µM.

Consider `COCCNC(=O)[C@@H]1CC[C@@H](Nc2ncc3c(Br)nn(-c4ccc(-c5ccn[nH]5)cc4)c3n2)C1` [(1R,3R)-3-((1-(4-(1H-pyrazol-5-yl)phenyl)-3-bromo-1H-pyrazolo[3,4-d]pyrimidin-6-yl)amino)-N-(2-methoxyethyl)cyclopentane-1-carboxamide], for which the IC50 under setting [2] lay in the range of 0.2 to 0.5 µM.

Regarding `O=C([C@@H]1CC[C@@H](Nc2ncc3c(Br)nn(-c4cc(F)c5ncccc5c4)c3n2)C1)n1ccc(C(F)(F)F)n1` [((1R,3R)-3-((3-bromo-1-(8-fluoroquinolin-6-yl)-1H-pyrazolo[3,4-d]pyrimidin-6-yl)amino)cyclopentyl)(3-(trifluoromethyl)-1H-pyrazol-1-yl)methanone], the IC50 under setting [2] was in the range of 0.025 to 0.2 µM.

In the case of `CNC(=O)[C@]1(C)CC[C@@H](Nc2ncc3c(Br)nn(-c4cc(C5=CCNC5)c5ncccc5c4)c3n2)C1` [(1R,3R)-3-[[3-bromo-1-[8-(2,5-dihydro-1H-pyrrol-3-yl)-6-quinolyl]pyrazolo [3,4-d]pyrimidin-6-yl]amino]-N,1-dimethyl-cyclopentanecarboxamide], the IC50 under setting [2] fell in the range of 0.025 to 0.2 µM.

On to `CNC(=O)[C@]1(C)CC[C@@H](Nc2ncc3c(Br)nn(-c4cc(CCN)c5ncccc5c4)c3n2)C1` [Example 32, (1R,3R)-3-((1-(8-(2-aminoethyl)quinolin-6-yl)-3-bromo-1H-pyrazolo[3,4-d]pyrimidin-6-yl)amino)-N,1-dimethylcyclopentane-1-carboxamide; 2,2,2-trifluoroacetic acid], for which the IC50 under setting [1] is less than 0.025 µM.

Turning to `CNS(=O)(=O)[C@H]1CC[C@@H](Nc2ncc3c(Br)nn(-c4ccc5ncccc5c4)c3n2)C1` [(1S,3R)-3-((3-bromo-1-(quinolin-6-yl)-1H-pyrazolo[3,4-d]pyrimidin-6-yl)amino)-N-methylcyclopentane-1-sulfonamide], under setting [2], the IC50 fell in the range of 0.5 to 1 µM.

Consider `CNC(=O)[C@]1(C)CC[C@@H](Nc2ncc3c(Br)nn(-c4cc(CO)c5ncccc5c4)c3n2)C1` [(1R,3R)-3-[[3-bromo-1-[8-(hydroxy-methyl)-6-quinolyl]pyrazolo[3,4-d]pyrimidin-6-yl]amino]-N,1-dimethyl-cyclopentanecarboxamide], for which the IC50 under setting [2] is less than 0.025 µM.

For `CNC(=O)[C@]1(C)CC[C@@H](Nc2ncc3c(Br)nn(-c4cccc(NC(=O)c5cscn5)c4)c3n2)C1` [N-[3-[3-bromo-6-[[(1R,3R)-3-methyl-3-(methylcarbamoyl)cyclopentyl]amino]pyrazolo[3,4-d]pyrimidin-1-yl]phenyl] thiazole-4-carboxamide], under setting [2], the IC50 is 0.025 to 0.2 µM.

On to `CNC(=O)[C@]1(C)CC[C@@H](Nc2ncc3c(Br)nn(-c4ccc(-c5ncco5)c([C@H]5CCNC5)c4)c3n2)C1` [(1R,3R)-3-[[3-bromo-1-[4-oxazol-2-yl-3-[(3R)-pyrrolidin-3-yl]phenyl]pyrazolo[3,4-d]pyrimidin-6-yl]amino]-N,1-dimethyl-cyclopentane-carboxamide], for which the IC50 under setting [2] lay within 0.025 to 0.2 µM.

As to `CNC(=O)C1(CCC#N)CC[C@@H](Nc2ncc3c(Br)nn(-c4ccc(-c5nnc(C)s5)c(CCC#N)c4)c3n2)C1` (stereo partly drawn) [(3R)-3-[[3-bromo-1-[3-(2-cyanoethyl)-4-(5-methyl-1,3,4-thiadiazol-2-yl)phenyl]pyrazolo[3,4-d]pyrimidin-6-yl]amino]-1-(2-cyanoethyl)-N-methyl-cyclopentanecarboxamide], the IC50 under setting [2] lay within 0.025 to 0.2 µM.

For the molecule `CNC(=O)[C@H]1CC[C@@H](Nc2ncc3c(Br)nn(-c4ccc5nc(OC)ccc5c4)c3n2)C1` [(1S,3R)-3-[[3-bromo-1-(2-methoxy-6-quinolyl)pyrazolo[3,4-d]pyrimidin-6-yl]amino]-N-methyl-cyclopentanecarboxamide], the IC50 under setting [2] lay within 0.025 to 0.2 µM.

For `Cc1nnc(-c2ccc(-n3nc(Br)c4cnc(N[C@@H]5CC[C@@](C)(N(C)C)C5)nc43)cc2)s1`, the IC50 under setting [2] was 0.025 to 0.2 µM.

Take `O=C(O)[C@@H]1CCC[C@@H](Nc2ncc3c(Br)nn(-c4ccc5ncccc5c4)c3n2)C1` [(1R,3R)-3-((3-bromo-1-(quinolin-6-yl)-1H-pyrazolo[3,4-d]pyrimidin-6-yl)amino) cyclohexane-1-carboxylic acid]: under setting [2], the IC50 was 0.5 to 1 µM.

As for `CNC(=O)C1CCN(C(=O)[C@@H]2CC[C@@H](Nc3ncc4c(Br)nn(-c5cc(F)c6ncccc6c5)c4n3)C2)C1` (mixture of isomers), the IC50 under setting [2] lay in the range of 0.025 to 0.2 µM.

On to `CNC(=O)[C@@H]1CC[C@@H](Nc2ncc3c(Br)nn(-c4ccn5nccc5c4)c3n2)C1` [(1R,3R)-3-[(3-bromo-1-pyrazolo[1,5-a]pyridin-5-yl-pyrazolo[3,4-d]pyrimidin-6-yl)amino]-N-methyl-cyclopentane-carboxamide], for which, under setting [2], the IC50 was in the range of 0.025 to 0.2 µM.

As for `CNC(=O)[C@H]1CC[C@@H](Nc2ncc3c(Br)nn(-c4cc(F)c5ncccc5c4)c3n2)C1` [(1S,3R)-3-[[3-bromo-1-(8-fluoro-6-quinolyl)pyrazolo[3,4-d]pyrimidin-6-yl]amino]-N-methyl-cyclopentanecarboxamide], the IC50 under setting [2] was less than 0.025 µM.

`CNC(=O)[C@]1(C)CC[C@@H](Nc2ncc3c(Br)nn(-c4cc(CN5CCNCCC5=O)c5ncccc5c4)c3n2)C1` [(1R,3R)-3-[[3-bromo-1-[8-[(7-oxo-1,4-diazepan-1-yl)methyl]-6-quinolyl]pyrazolo[3,4-d]pyrimidin-6-yl]amino]-N,1-dimethyl-cyclopentanecarboxamide]: the IC50 under setting [2] lay within 0.025 to 0.2 µM.

Consider `CNC(=O)[C@@H]1CC[C@@H](Nc2ncc3c(Br)nn(-c4cc(F)c5nc(C)ccc5c4)c3n2)C1` [(1R,3R)-3-((3-bromo-1-(8-fluoro-2-methyl-quinolin-6-yl)-1H-pyrazolo[3,4-d]pyrimidin-6-yl)amino)-N-methylcyclopentane-1-carboxamide], for which the IC50 under setting [2] was in the range of 0.025 to 0.2 µM.

Regarding `COC(C)(C)CN(C)C(=O)[C@]1(C)CC[C@@H](Nc2ncc3c(Br)nn(-c4cc(F)c5ncccc5c4)c3n2)C1` [(1R,3R)-3-[[3-bromo-1-(8-fluoro-6-quinolyl)pyrazolo[3,4-d]pyrimidin-6-yl]amino]-N-(2-methoxy-2-methyl-propyl)-N,1-dimethyl-cyclopentanecarboxamide], under setting [2], the IC50 was less than 0.025 µM.

Turning to `CNC(=O)[C@]1(C)CC[C@@H](Nc2ncc3c(Br)nn(-c4cc(CC#N)c5ncccc5c4)c3n2)C1` [(1R,3R)-3-[[3-bromo-1-[8-(cyanomethyl)-6-quinolyl]pyrazolo[3,4-d]pyrimidin-6-yl]amino]-N,1-dimethyl-cyclopentane-carboxamide], under setting [2], the IC50 was less than 0.025 µM.

In the case of `CNC(=O)[C@]1(C)CC[C@@H](Nc2ncc3c(Br)nn(-c4ccc(C#N)c(CNS(C)(=O)=O)c4)c3n2)C1` [(1R,3R)-3-[[3-bromo-1-[4-cyano-3-(methanesulfonamidomethyl)phenyl]pyrazolo[3,4-d]pyrimidin-6-yl]amino]-N,1-dimethyl-cyclopentanecarboxamide], the IC50 under setting [2] lay within 0.025 to 0.2 µM.
